Measured values: US20050130913A1, “Synergistic insecticidal mixtures” (priority 2002, published 2005)

Tests used:
Type in all cases: in vivo
[1] = test system: mustard beetle larvae (Phaedon cochleariae); experiment: Phaedon larvae test (Example F); details: found effect, dipped cabbage leaves
Procedure: (§1) • Solvent: 7 parts by weight of dimethylformamide • Emulsifier: 2 parts by weight of alkylaryl polyglycol ether
(§2) After the desired period, the destruction in % is determined. 100% means that all of the beetle larvae have been destroyed; 0% means that no beetle larvae have been destroyed. The destruction values determined are calculated using Carpenter's formula.

[2] = test system: army worm caterpillars (Spodoptera frugiperda); experiment: Spodoptera frugiperda test (Example G); details: found effect, dipped cabbage leaves
Procedure: (§3) Spodoptera frugiperda Test
as §1
(§4) Cabbage leaves (Brassica oleracea) are treated by being dipped into the active compound preparation of the desired concentration and are populated with army worm caterpillars (Spodoptera frugiperda) while the leaves are still moist.
(§5) After the desired period, the destruction in % is determined. 100% means that all of the caterpillars have been destroyed; 0% means that no caterpillars have been destroyed. The destruction values determined are calculated using Carpenter's formula.

[3] = test system: Heliothis armigera caterpillars; details: found effect, dipped soya bean shoots (Glycine max)
Procedure: as §1
Soya bean shoots (Glycine max) are treated by being dipped into the active compound preparation of the desired concentration and are populated with Heliothis armigera caterpillars while the leaves are still moist.
After the desired period, the destruction in % is determined. 100% means that all of the caterpillars have been destroyed; 0% means that no caterpillars have been destroyed. The destruction values determined are calculated using Carpenter's formula (see previous page).

[4] = test system: mustard beetle larvae (Phaedon cochleariae); details: found effect, dipped cabbage leaves (Brassica oleracea)
Procedure: as §1, §2

[5] = test system: diamond-back moth caterpillars (Plutella xylostella, resistant strain); experiment: Plutella test, resistant strain (Example D); details: found effect, dipped cabbage leaves
Procedure: Plutella Test, Resistant Strain
as §1
Cabbage leaves (Brassica oleracea) are treated by being dipped into the active compound preparation of the desired concentration and are populated with diamond-back moth caterpillars (Plutella xylostella, resistant strain) while the leaves are still moist.
as §5

[6] = test system: army worm caterpillars (Spodoptera frugiperda); details: found effect, dipped cabbage leaves
Procedure: as §3
• Solvent: 7 parts by weight of dimethylformamide • Emulsifier: 2 parts by weight of alkylaryl polyglycol ether.
as §4, §5

[7] = test system: diamond-back moth caterpillars (Plutella xylostella, sensitive strain); experiment: Plutella test, sensitive strain (Example C); details: found effect, dipped cabbage leaves
Procedure: Plutella Test, Sensitive Strain
as §1
Cabbage leaves (Brassica oleracea) are treated by being dipped into the active compound preparation of the desired concentration and are populated with diamond-back moth caterpillars (Plutella xylostella, sensitive strain) while the leaves are still moist.
as §5

Row | Compound | LC95 after 6 days [1] [ppm] | LC95 after 6 days [2] [ppm] | LC50 after 6 days [3] [ppm] | LC50 after 6 days [4] [ppm] | LC95 after 6 days [5] [ppm] | LC50 after 6 days [6] [ppm] | LC95 after 6 days [7] [ppm]
1 | CC[C@H](C)[C@H]1O[C@]2(C=C[C@@H]1C)C[C@@H]1C[C@@H](C/C=C(\C)[C@@H](O[C@H]3C[C@H](OC)[C@@H](O[C@H]4C[C@H](OC)[C@@H](O)[C@H](C)O4)[C@H](C)O3)[C@@H](C)/C=C/C=C3\CO[C@@H]4[C@H](O)C(C)=C[C@@H](C(=O)O1)[C@]34O)O2 [Avermectin, abamectin] | 0.345 | 30.104 | – | – | – | – | –
2 | emamectin benzoate | – | – | 0.007 | 0.026 | 0.0033 | 0.0029 | 0.0009
